Entries after “also recorded” stand apart in the source; their conditions may differ. Read-outs that look alike come from different tables or passages of the source.
How the values were obtained:
[1] = test system: rosettes of wild isolates; assay: Rosette disruption assay, wild (patient) isolates; type: cell-based, Plasmodium falciparum; conditions: for rosette disruption of wild / fresh isolates: both groups of isolates; for relative effectiveness as rosette disrupter on the whole collection of wild isolates: thirtytwo patient isolates
Text: (§1) Parasites and rosetting—Two distinct highly resetting P. Falciparum laboratory stains were used: FCR3S1 (previously named R^+PA1) and TM 284 (isolated in Thailand, 1990). Parasites were cultivated according to standard procedures (Udomsangpetch et al. 1989). Field isolates were obtained from patients attending the Albert Schweitzer Hospital, Lambaréné, Gabon between April and June 1996. […] A venous or capillary blood sample was taken after patients or parents informed consent. Blood was washed three times with RPMI and cultivated according to standard procedures (Udomsangpetch et al. 1989). Assessment for parasite growth and resetting was made every 6–8 hours using a Leitz UV-light microscope. Briefly, an aliquot of parasite culture was mixed with a small amount of acridine orange and the sample was analyzed. Assays were performed on rosetting isolates when the majority of parasites in culture had reached the trophozoite stage. The resetting rate was expressed as the number of infected erythrocytes in rosettes relative to the total number of late stage infected erythrocytes. Three hundred infected cells were counted. Parasitemia was calculated as the number of infected erythrocytes relative to the number of uninfected erythrocytes.
(§2) For laboratory stains, parasite cultures with rosetting rates of 50–70% and parasitemia 5–8% were used Aliquots (12.5–25 μl) of parasite cultures were mixed with equal amounts of sulfated glycoconjugate compound in RPMI in a 96-well microtiter plate, at final concentrations indicated After incubation for 30 minutes at 37° C. assessment for resetting was made as described above. The resetting rate was compared to that of culture mixed with RPMI.

FCR3S1 rosettes [2] = assay: Rosette disruption assay, laboratory strain FCR3S1; type: cell-based, Plasmodium falciparum; conditions: for rosette disrupting effect of heparin disaccharides: not shown; for sensitivity of FCR3S1 rosettes to the compound: 30 minutes at 37° C.; for reduction of rosette disruption efficiency compared to native heparin: modified heparin; for rosette reversion by disaccharide: at 45 mM
Text: as §1, §2

[3] = test system: DBL-1-GST fusion protein (FCR3S1.2-PfEMP1); assay: Erythrocyte blocking assay: inhibition of DBL-1-GST binding to RBC by GAGs; type: cell-based, Plasmodium falciparum; conditions: GAG titrated from 20 to 8 mg/ml
Experimental: Ten-well immunofluorescence glass-slides were precoated with 10% poly-L-lysine in PBS for 30 min. Monolayers of RBC were made by addition of 20 μl of 0.5% 3× washed bloodgroup O Rh^+RBC in PBS to each well. Twenty μl DBL-1-GST, ATS-GST or GST alone (80 μg/ml) in PBS was added to the wells for 30 min. The DBL-1-GST fusion protein was in subsequent experiments incubated in the presence of heparin, heparan sulfate or chondroitin sulfate (titrated from 20 to 8 mg/ml) to study the inhibitory activity of each GAG. Slides were washed 3 times with PBS and the fusion protein-binding was detected with the biotin-labelled anti-GST mAb and an EXTRAVIDIN (a modified avidin) FITC conjugate (Sigma). The fluorescence was assessed in a Nikon Optiphot-2 UV microscope, using a ×10 ocular and an oil lens with a magnification of ×100.

[4] = test system: DBL-1-GST fusion protein (FCR3S1.2-PfEMP1); assay: Heparin blocking assay: inhibition of DBL-1-GST binding to heparin-sepharose by GAGs; design: species or system Plasmodium falciparum; conditions: GAG titrated from 10 to 0.5 mg/ml, SDS-PAGE
Experimental: The potential binding of the fusion proteins to heparin was studied by mixing either DBL-1-GST, ATS-GST fusion protein or GST alone (20 μl, 150 μg/ml in PBS) with 20 μl of 50% heparin-sepharose (Pharmacia) and incubating for 5 min at room temperature in the absence of serum; binding to uncoupled sepharose was used as control. The heparin-sepharose and protein mixture was washed 3 times in large volumes of PBST buffer (PBS plus 0.05% Tween-20) before extracting bound proteins in loading-buffer for 10% SDS-PAGE. Inhibition of DBL-1-GST fission protein binding to heparin with heparin, heparan sulfate or chondroitin sulfate (Lövens Kemiske Fabrik, Denmark, more than 90% pure) was also tested. Twenty μl of 150 μg/ml DBL-1-GST fusion protein was mixed separately for 5 minutes with an equal volume of heparin, heparan sulfate, or chondroitin sulfate, titrated from 10 to 0.5 mg/ml, before the addition of heparin sepharose. The inhibitory activities were checked by SDS-PAGE.

TM 284 rosettes [5] = assay: Rosette disruption assay, laboratory strain TM 284; type: cell-based, Plasmodium falciparum; conditions: for sensitivity of TM 284 rosettes to the compound: relative to FCR3S1
Text: as §1, §2

FCR3S1.2 rosettes = assay: Rosette disruption assay, FCR3S1.2; type: cell-based, Plasmodium falciparum; conditions: incubated with GAGs for 1 h at 37° C., compared to control culture
Experimental: FIG. 5. Effect of glycosaminoglycans (GAGS) on P. falciparum resetting. […] FCR3S1.2 cultures were incubated with GAGs for 1 h at 37° C. and compared to control culture. Results are the means and standard error of three separate experiments.
The assay was performed essentially as described (Carlson, J. and M. Wahlgren, 1992. Plasmodium falciparum erythrocytes resetting is mediated by promiscuous lectin-like interactions. J. Exp. Med., 176, 1311–1317). The recombinant fission proteins ([…] in PBS of DBL-1-GST or ATS-GST) were added to 25 μl aliquots of a ≈80% rosetting culture of FCR3S1.2 in a micro-titre plate. The mixtures were incubated for 30 min. at 37° C. after which the rosetting rate was scored and compared to mock treated controls after staining with acridine orange.

FCR3S1 rosetting = type: cell-based, Plasmodium falciparum; conditions: compared to mock treated control cultures
TM 284 rosetting = type: cell-based, Plasmodium falciparum; conditions: compared to mock treated control cultures
[6] = test system: uninfected RBC rosette binding capacity; type: cell-based, Plasmodium falciparum; conditions: compared to non-treated RBC
[7] = test system: rosettes of fresh P. falciparum-isolates; conditions: cited from earlier work
TM 284 rosettes [8] = type: cell-based, Plasmodium falciparum
FCR3S1 rosettes [9] = type: cell-based, Plasmodium falciparum

## fucoidan
[1]
  rosette disruption of wild / fresh isolates: strong rosette disrupter; also recorded: disrupted rosettes of almost all fresh isolates
  relative effectiveness as rosette disrupter on the whole collection of wild isolates: most effective rosette disrupter for most isolates

## N[C@H]1C(O)O[C@H](CO)[C@@H](O[C@@H]2OC(C(=O)O)=C[C@H](O)[C@H]2O)[C@@H]1O (stereo partly shown) [IV-H, ΔHexA-GlcN]
FCR3S1 rosettes [2]
  rosette disrupting effect of heparin disaccharides: no rosette disrupting effect

## heparan sulfate
FCR3S1 rosettes [2]
  sensitivity of FCR3S1 rosettes to the compound: high sensitivity
[3]
  inhibition of DBL-1-GST binding to erythrocytes: could be inhibited with small amounts
[4]
  inhibition of DBL-1-GST binding to heparin-sepharose: dose-dependently be competed out
[1]
  relative effectiveness as rosette disrupter on the whole collection of wild isolates: intermediate position
TM 284 rosettes [5]
  sensitivity of TM 284 rosettes to the compound: less sensitive
FCR3S1.2 rosettes
  disruptive activity of GAGs on FCR3S1.2 rosettes: sensitive

## [O-][I+3]([O-])([O-])O [Sodium periodate]
FCR3S1 rosetting
  change in rosetting after treatment of whole cultures, FCR3S1: intermediate effect
TM 284 rosetting
  change in rosetting after treatment of whole cultures, TM 284: intermediate effect
[6]
  decrease of rosette binding capacity of treated uninfected RBC: 4 fold

## dextran sulfate
[1]
  rosette disruption of wild / fresh isolates: much less effective that GAGs in most of the strains
  relative effectiveness as rosette disrupter on the whole collection of wild isolates: intermediate position

## chymotrypsin
FCR3S1 rosetting
  change in rosetting after treatment of whole cultures, FCR3S1: rosetting was abolished completely
TM 284 rosetting
  change in rosetting after treatment of whole cultures, TM 284: rosetting was abolished completely

## Chondroitin sulfate B
FCR3S1.2 rosettes
  disruptive activity of GAGs on FCR3S1.2 rosettes: slight effect only at high concentrations

## heparin
FCR3S1 rosettes [2]
  sensitivity of FCR3S1 rosettes to the compound: high sensitivity
FCR3S1 rosettes [2]; heparin 1 mg/ml vs I-S 30 mM
  efficiency of heparin chain relative to disaccharide I-S, weight basis: around 20 fold
FCR3S1 rosettes [2]; heparin ≃70 μM vs I-S 30 mM
  efficiency of heparin chain relative to disaccharide I-S, molar basis: around 500 fold
[3]
  inhibition of DBL-1-GST binding to erythrocytes: could be inhibited with small amounts
[4]
  inhibition of DBL-1-GST binding to heparin-sepharose: dose-dependently be competed out
[1]
  relative effectiveness as rosette disrupter on the whole collection of wild isolates: intermediate position
[7]; 54 fresh isolates
  fresh isolates whose rosettes were disrupted: 50%
[7]; out of 54 fresh isolates
  number of fresh isolates whose rosettes were disrupted: 27
TM 284 rosettes [5]; at 1 mg/ml (not shown)
  rosettes disrupted: 80%
TM 284 rosettes [5]
  sensitivity of TM 284 rosettes to the compound: less sensitive
FCR3S1.2 rosettes
  disruptive activity of GAGs on FCR3S1.2 rosettes: sensitive

## O=C(O)C1=C[C@H](O)[C@@H](OS(=O)(=O)O)[C@H](O[C@H]2[C@H](O)[C@@H](NS(=O)(=O)O)[C@@H](O)O[C@@H]2COS(=O)(=O)O)O1 [I-S, ΔHexA(2-OSO3)-GlcNSO3(6-OSO3)]
FCR3S1 rosettes [2]; 30 mM disaccharide, preliminary experiment
  rosette disruption by disaccharide titrated against heparin: disrupted to the same extent as with heparin at 1 mg/ml

## NC1C(O)OC(CO)C(OC2OC(C(=O)O)=CC(O)C2OS(=O)(=O)O)C1O (stereo not shown) [III-H, ΔHexA(2-OSO3-GlcN)]
FCR3S1 rosettes [2]
  rosette disrupting effect of heparin disaccharides: no rosette disrupting effect

## CC(=O)N[C@H]1C(O)O[C@H](COS(=O)(=O)O)[C@@H](O)[C@@H]1O (stereo partly shown) [N-acetylated glucosamine with an O-sulfate ester at C-6]
FCR3S1 rosettes [2]
  rosette disrupting activity of monosaccharides: Some activity

## N[C@H]1C(O)O[C@H](COS(=O)(=O)O)[C@@H](O[C@@H]2OC(C(=O)O)=C[C@H](O)[C@H]2O)[C@@H]1O (stereo partly shown) [II-H, ΔHexA-GlcN(6-OSO3)]
FCR3S1 rosettes [2]
  rosette disrupting effect of heparin disaccharides: no rosette disrupting effect

## 2-O-desulfated heparin
FCR3S1 rosettes [2]
  reduction of rosette disruption efficiency compared to native heparin: ~10 fold

## O=S(=O)(O)N[C@H]1C(O)O[C@H](CO)[C@@H](O)[C@@H]1O (stereo partly shown) [N-sulfated glucosamine]
FCR3S1 rosettes [2]
  rosette disrupting activity of monosaccharides: total rosette disruption; also recorded: abolishes rosetting
FCR3S1 rosettes [2]; listed as N-sulfated mono-saccharide glucosamine
  rosette disrupting activity of monosaccharides: good anti-rosetting activity

## 6-O-desulfated heparin
FCR3S1 rosettes [2]
  reduction of rosette disruption efficiency compared to native heparin: ~10 fold

## Chondroitinase ABC
FCR3S1 rosetting
  change in rosetting after treatment of whole cultures, FCR3S1: had only effect on the rosetting of the TM284 strain
TM 284 rosetting
  change in rosetting after treatment of whole cultures, TM 284: had only effect on the rosetting of the TM284 strain
TM 284 rosettes [8]
  decrease of binding capacity of treated uninfected RBC, TM 284: two fold decrease
FCR3S1 rosettes [9]
  binding capacity of treated uninfected RBC, FCR3S1: unaffected

## chondroitin sulfate A
FCR3S1.2 rosettes
  disruptive activity of GAGs on FCR3S1.2 rosettes: neither chondroitin sulfate A, keratan sulfate, nor hyaluronic acid had any effect

## O=C(O)C1=C[C@H](O)[C@@H](O)[C@H](O[C@H]2[C@H](O)[C@@H](NS(=O)(=O)O)C(O)O[C@@H]2CO)O1 (stereo partly shown) [IV-S, ΔHexA-GlcNSO3]
FCR3S1 rosettes [2]
  rosette reversion by disaccharide: complete rosette reversion

## hyaluronic acid
FCR3S1.2 rosettes
  disruptive activity of GAGs on FCR3S1.2 rosettes: neither chondroitin sulfate A, keratan sulfate, nor hyaluronic acid had any effect

## keratan sulfate
FCR3S1.2 rosettes
  disruptive activity of GAGs on FCR3S1.2 rosettes: neither chondroitin sulfate A, keratan sulfate, nor hyaluronic acid had any effect

## chondroitin sulfate
FCR3S1 rosettes [2]
  sensitivity of FCR3S1 rosettes to the compound: little or no effect
[4]
  inhibition of DBL-1-GST binding to heparin-sepharose: but not with chondroitin sulfate
[1]
  relative effectiveness as rosette disrupter on the whole collection of wild isolates: the least effective
TM 284 rosettes [5]
  sensitivity of TM 284 rosettes to the compound: relatively higher sensitivity

## trypsin
FCR3S1 rosetting
  change in rosetting after treatment of whole cultures, FCR3S1: rosetting was abolished completely
TM 284 rosetting
  change in rosetting after treatment of whole cultures, TM 284: rosetting was abolished completely

## dermatan sulfate
FCR3S1 rosettes [2]
  sensitivity of FCR3S1 rosettes to the compound: little or no effect
[1]
  relative effectiveness as rosette disrupter on the whole collection of wild isolates: intermediate position
TM 284 rosettes [5]
  sensitivity of TM 284 rosettes to the compound: relatively higher sensitivity

## O=S(=O)(O)NC1C(O)OC(CO)C(O)C1O (stereo not shown) [N-sulfated galactosamine]
FCR3S1 rosettes [2]
  rosette disrupting activity of monosaccharides: lacked rosette disrupting activity and none and does not

## CC(=O)NC1C(O)OC(CO)C(OC2OC(C(=O)O)=CC(O)C2O)C1O (stereo not shown) [IV-A, ΔHexA-ClcNAc]
FCR3S1 rosettes [2]
  rosette reversion by disaccharide: completely lacked effect

Reference: patent publication US7125958B1, “Malaria polypeptides” (priority 1997, dated 2006)
